In one experiment the target is S. maltophilia DHFR (Stenotrophomonas maltophilia, UniProt B2FPG1). It is filed as biochemical. The following applies: for Km: partially purified S. maltophilia DHFR, substrate. Here is the method: For the DHFR extraction, S. maltophilia strain number 1, was inoculated onto fresh agar 24 h before using. Then, liquid medium was inoculated with the strain and these broth cultures were incubated at 37° C. and shaken at 100 cycles per min. Solid medium was MacConkey agar (Oxoid Ltd., Basingstoke, England). Liquid medium was Brilliant Green Bile 2% broth (Oxoid). Bacteria were grown to mid-log phase, harvested by centrifugation (1,600 rpm 30 min) and washed twice in 50 mM phosphate buffer (pH 7.0) followed each time by a new centrifugation (1,600 rpm 5 min). Cell lysis, centrifugation, and dialysis were carried out between 4 and 8° C. Fast protein liquid chromatography (FPLC) purification steps were performed at room temperature. […] After centrifugation at 36,000 rpm for 30 min to remove cell debris, the supernatant was filtered. This supernatant was brought to 40% saturation with solid ammonium sulfate under continuous stirring. After 1 h the solution was centrifuged at 35,000 rpm for 30 min and the pellet discarded. Additional ammonium sulfate was added to the clear supernatant to give 90% saturation and stirred for 1 h. After centrifugation, the precipitates were suspended in 2 ml of buffer B (10 mM potassium phosphate buffer, pH 7.4, 2 mM β-mercaptoethanol). Concentrated enzyme (2 ml samples) was loaded onto a […] gel-filtration column (Sephacryl S-75 16/60 Hi-Prep, Amersham Pharmacia Biotech Europe GmbH, Barcelona, Spain), equilibrated with buffer B and eluted at 0.5 ml/min. The active fractions were concentrated and stored at −80° C. until used.
Initial velocity inhibition experiments were carried out for the inhibition studies of S. maltophilia with TMP and EGCG. One substrate (NADPH) was held constant at saturating concentration while the other substrate (DHF) and the inhibitor (TMP or EGCG) were varied. To prevent the oxidation of EGCG the reaction mixture contained 1 mM N-acetylcysteine (Sigma). For MTX inhibition the slow development of […] inhibition was determined by continuously monitoring the disappearance of NADPH and DHF after initiation of the reaction by the addition of DHFR. Reaction mixtures contained buffer, NADPH (100 μM), DHF (20 μM), and various concentrations of MTX. The extent of recovery of enzymatic activity following inhibition induced by preincubation with DHFR inhibitors was determined as follows. DHFR was preincubated for 30 min at 25° C. in the buffer mixture containing MTX, TMP or EGCG. An aliquot of the incubation mixture was then diluted 500-fold into a reaction mixture containing buffer mixture, NADPH (100 μM), and DHF (20 μM). Recovery of enzyme activity was followed by continuous monitoring at 340 nm.
Provided that the concentration of free inhibitor is not substantially altered by the formation of an enzyme-NADPH-inhibitor complex, the progress curve for the inhibition in the presence of saturating NADPH can be described by Eqn. 1 (as above): P=vst+(v0−vs)(1−exp(−kobst))/kobs • where vs, v0 and kobs represent the steady-state velocity, initial velocity and apparent first-order rate constant, respectively. The apparent first-order rate constant is related to the inhibitor concentration by Eqn. 2, where Ki denotes the dissociation constants for the initial binding of MTX to the enzyme-NADPH complex. [formula]

Another experiment concerns L1210 cells. Description: EGCG cytotoxicity / growth of L1210 cells. It is filed as cell-based, mouse. The following applies: L1210; hypoxanthine-thymidine (HT) medium; EGCG 20 μM. On the procedure:
L1210 cells were plated at a density of 10,000 cells/ml in 96-well plates with a “standard folate” RPMI 1640 medium supplemented with 10% FCS. Reversion experiments were carried out in an HT medium and/or by adding 50 μM ascorbic acid (AA). Cell injury was evaluated by a calorimetric assay for mitochondrial function using the MTT test.^29
The effect of different EGCG concentrations on L1210 cell growth after 29 h of treatment at two different folic acid concentrations was determined. The cells were previously adapted over a period of 2-3 days to grow in folate-free RPMI 1640 medium supplemented with 10% dialyzed FCS and 2 mM glutamine. This medium is subsequently referred to as LF (low folate). For the cytotoxicity assay, the cells were grown in LF media supplemented with folic acid (3 μM or 300 nM). Treatments were carried out in triplicate, and each experiment performed at least twice. Cell growth was determined by two different methods, Coulter counter Z2 and hemocytometer (FIG. 7). IC50 values were determined at each folic acid concentration added to the medium.
The growth-inhibitory effects of 10 μM EGCG at various folic acid concentrations were determined at two different time intervals. L1210 cells were cultured in a LF medium supplemented with the corresponding folic acid concentration. The data were obtained by using a Coulter counter and hemocytometer and expressed assuming a zero percentage of growth inhibition for untreated control (FIG. 8). Cells were maintained in the corresponding medium with 100 μg/ml of penicillin and streptomycin at 37° C. in a humid 7.5% CO2, […] environment for all the experiments.

The subject of another experiment is p16. Description: p16 methylation status in Caco-2 cells. The following applies: EGCG 20 μM, 7-days treatment.
For the next experiment, the target named is T1, bovine liver DHFR (Bos taurus, UniProt P00376).
T1 construct: from tissue; host or cells: bovine liver
T1 sequence (P00376 1-187): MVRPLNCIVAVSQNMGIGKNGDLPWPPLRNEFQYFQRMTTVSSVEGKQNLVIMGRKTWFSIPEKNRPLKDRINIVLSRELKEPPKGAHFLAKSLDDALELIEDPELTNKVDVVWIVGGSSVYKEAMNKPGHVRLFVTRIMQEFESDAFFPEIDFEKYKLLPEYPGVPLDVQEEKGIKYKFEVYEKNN
Nature of the experiment: Kinetic analysis of inhibition of bovine liver DHFR. It is filed as biochemical. Here is the method: The activity of DHFR was determined at 25° C. by following the decrease of NADPH and DHF by absorbance measurements at 340 nm (ε=11,800 M^−1 cm^−1) by using a Perkin-Elmer Lambda-2 spectrophotometer with cuvettes of 1.0 cm light-path.
Experiments were performed at pH 7.58 and 25° C. in a buffer containing 2-(N-morpholino)ethanesulfonic acid (MES, 25 mM), sodium acetate (25 mM), tris(hydroxymethyl)aminomethane (Tris 50 mM), and NaCl (100 mM). To prevent the oxidation of catechins, the reaction mixture contained 1 mM ascorbic acid. The pH of the reaction was measured before and after of the experiment. The assays were started by the addition of enzyme. In the absence of the enzyme, the rate of change of absorbance was negligible. […]
Progress curves for the slow, tight-binding inhibition of bovine liver DHFR by EGCG were determined by continuously monitoring the disappearance of NADPH and DHF after initiation of the reaction by the addition of 3.3 nM enzyme. Reaction mixtures contained buffer, NADPH (100 μM), DHF (20 μM) and EGCG. Assuming that the concentration of free inhibitor is not substantially altered by the formation of an enzyme-NADPH-inhibitor complex, the progress curve for the inhibition in the presence of saturating NADPH is described by Eqn. (1): P=vst+(v0−vs)(1−exp(−k′t))/k′
where vs, v0 and k′ represent the steady-state velocity, initial velocity and apparent first-order rate constant, respectively.
The values of k′ at different EGCG concentrations were obtained by non-linear regression analysis of the progress curves. KI and KI* denote the respective dissociation constants for the initial and equilibrium binding of inhibitors to the enzyme-NADPH complex (FIG. 5).

Experiment [1] concerns the target T2, recombinant human DHFR (rHDHFR) (Homo sapiens, UniProt P00374).
T2 sequence (P00374 1-187): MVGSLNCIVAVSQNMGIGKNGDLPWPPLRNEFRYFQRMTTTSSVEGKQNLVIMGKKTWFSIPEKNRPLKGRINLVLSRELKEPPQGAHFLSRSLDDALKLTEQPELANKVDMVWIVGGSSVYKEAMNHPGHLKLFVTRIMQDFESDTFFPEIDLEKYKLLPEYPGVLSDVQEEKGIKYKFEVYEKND
Nature of the experiment: Inhibition of human DHFR by tea catechins. It is filed as biochemical.

Read-outs that look alike come from different tables or passages of the source.

One may read the Ki as a dissociation constant, usually derived from enzyme kinetics or from competition with a known ligand. One may read the Km as the substrate concentration at which the rate is half of its maximum.

S. maltophilia DHFR, sequence (B2FPG1 entry or part of it): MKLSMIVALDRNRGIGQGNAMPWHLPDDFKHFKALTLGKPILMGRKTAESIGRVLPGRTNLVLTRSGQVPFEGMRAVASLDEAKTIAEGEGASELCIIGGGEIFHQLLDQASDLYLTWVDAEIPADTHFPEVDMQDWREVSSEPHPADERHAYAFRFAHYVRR

Consider `COc1cc(Cc2cnc(N)nc2N)cc(OC)c1OC` [trimethoprim], for which, at S. maltophilia DHFR, the Ki turned out to be 4690 nM, the “Type of inhibition observed” value is “competitive (reversible)” and the “effect of preincubation of the enzyme with inhibitor” value was “did not produce any measurable inhibition”.

`Nc1nc(=O)c2c([nH]1)NCC(CNc1ccc(C(=O)N[C@@H](CCC(=O)O)C(=O)O)cc1)=N2` [DHF, 7,8-dihydrofolate]: at S. maltophilia DHFR (pH 8.0), the Km is 1.8 µM.

Turning to `CN(Cc1cnc2nc(N)nc(N)c2n1)c1ccc(C(=O)N[C@@H](CCC(=O)O)C(=O)O)cc1` [methotrexate], at S. maltophilia DHFR (S. maltophilia DHFR), the “Type of inhibition observed” value was “competitive (slow-”. Also, the k1 at S. maltophilia DHFR (S. maltophilia DHFR, calculated by using Eqn. 3) is 6.17e+07 M⁻¹ s⁻¹. Besides, the “rate constant k2” value on S. maltophilia DHFR (S. maltophilia DHFR, pH 8.0) was determined as 0.0011 s⁻¹. The “growth inhibition in HT medium” value in the experiment with L1210 cells was “greatly attenuated”. Further, the p16 methylation pattern result with p16 is recorded as “reversal of hypermethylation was observed”.

For the compound `NC(=O)C1=CN([C@@H]2O[C@H](COP(=O)(O)OP(=O)(O)OC[C@H]3O[C@@H](n4cnc5c(N)ncnc54)[C@H](OP(=O)(O)O)[C@@H]3O)[C@@H](O)[C@H]2O)C=CC1` [NADPH], the Km at S. maltophilia DHFR (pH 8.0) worked out at 12 µM.

Take `O=C(O[C@@H]1Cc2c(O)cc(O)cc2O[C@@H]1c1ccc(O)c(O)c1)c1cc(O)c(O)c(O)c1` [ECG, (−)-epicatechin gallate]: on bovine liver DHFR, the “inhibition of DHFR activity” value is “potent inhibitor”, the k5 stood at 0.11 min⁻¹, the k5/k6 turned out to be 7.1 ratio and the k6 was 0.015 min⁻¹. On bovine liver DHFR (KI*, equilibrium binding to enzyme-NADPH complex), this compound showed a Ki of 6.55 nM. The same compound had a Ki on bovine liver DHFR (KI, initial binding to enzyme-NADPH complex, pH 7.58, 25° C.) of 51.3 nM. In addition, the “inhibition of rHDHFR activity” value in experiment [1] is given as “potent inhibitors”.

Regarding `Oc1cc(O)c2c(c1)O[C@H](c1cc(O)c(O)c(O)c1)[C@H](O)C2` [EGC, (−)-epigallocatechin, reference compound], the “inhibition of DHFR activity” value against bovine liver DHFR was “did not inhibit”. The “inhibition of rHDHFR activity” value in experiment [1] is “did not inhibit”.

The record behind these values is US20070249545A1, “DIHYDROFOLATE REDUCTASE INHIBITION BY EPIGALLOCATECHIN GALLATE COMPOUNDS” (priority 2004, published 2007).
